Values after ≈ are worked out from the molar mass of the structure shown. “Also recorded” adds a separate entry of the source. Where two headings read alike, the source gives them in different places.
Columns and labels:
[1] = test system: carrageenan-induced rat paw edema; test: carrageenan-induced rat paw edema test, intraperitoneal dosing; assay type: in vivo; parameters: key to mean difference in volume (MDV): post-injection minus pre-injection mean paw volume
Protocol: Two methods were used to assess the antiinflammatory activity of the compounds of the invention: the carrageenan-induced rat paw edema test and, the erythrocyte membrane stabilization assay.
(§1) In the Rat Paw Edema Test, the rats utilized were divided into test groups of six to eight animals, weighed and marked so that individual rats could be identified; one hour before testing all rats were given a 700 mg/kg intraperitoneal injection of ethyl urethane in distilled water to render them tractable during testing. A circle was drawn, with a felt-tipped marker, around the hind leg of each rat just above the ankle, and each rat was dosed with a test or control compound by intraperitoneal injection. Negative control groups received the vehicle; while positive control groups received a dose of phenylbutazone (PBZ) as shown in Table II. Test compounds were given at doses of 60, 120, 240 and 480 mg/kg. The positive controls were given at 120 mg/kg and 60 mg/kg. Phenylbutazone was prepared for injection by suspending it in normal saline using Tween 60. The rats were then held in group cages for 30 minutes. The volume of the left hind paw was measured using a mercury displacement pleysmograph. The paw is dipped into the mercury until the mercury touches the line above the ankle. Mercury is then withdrawn until the mercury returns to its original level. The amount of mercury removed is measured in milliliters (ml). The mercury can be measured accurately to 0.01 ml. This left hind paw was then injected with 0.1 ml of a 5% w/v solution of viscous carageenan in normal saline. The injection was given between the metatarsal bones using a 27 gauge needle, and the rats then held in group cages for 3 hours. The volume of the left hind paws was measured again in the pleysmograph. The results were computed in the following manner:
(§2) a. A mean is taken for both the pre-injection and post-injection paw volume of each test group.
(§3) b. The mean difference in volume (MDV) for each test group is computed by subtracting the pre-injection means from the post-injection mean.
(§4) c. The percent of control is computed for each test [formula] The percent of control is used to compare the efficacy of the various drug treatments.
(§5) d. The percent increase in paw volume is calculated for each group as: [formula] The percent increase is used to compare the amount of edma observed in one experiment to the amount of edma observed in other experiments.
The data from the rat paw test were further analyzed using a one-way analysis of varience (ANOVA) and Duncan's New Multiple Range Test. The pre-injection score of each animal was subtracted from his post-injection score and an analysis of the different scores were conducted.
The procedure described above was followed. […] The vehicle control used was Tween 60, Arlacel and distilled water prepared without CBC(II).

[2] = test system: carrageenan-induced rat paw edema; test: carrageenan-induced rat paw edema test, oral gavage; assay type: in vivo; parameters: key to mean difference in volume (MDV): ml; post-injection minus pre-injection mean paw volume
Protocol: as §1, with “A circle was drawn, with a felt-tipped marker, around the hind leg of each rat just above the ankle, and each rat was dosed with a test or control compound by intraperitoneal injection.” left out
as §2, §3, §4, §5
[…] The test was conducted twice, once with nonfasted rats and once with rats that had been fasted during the 24 hour period prior to dosing. The 60 mg/kg phenylbutazone control group was not used in the test with fasted animals. Tween 60 in normal saline was the vehicle control for the non-fasted rats and normal saline was the vehicle control for the fasted rats.

[3] = test system: erythrocyte (heat-induced hemolysis); test: erythrocyte membrane stabilization assay (heat-induced erythrocyte hemolysis); assay type: cell-based; settings: Erythrocyte; for inhibition at 250 µM: 2.5 × 10^-4 M
Protocol: The published procedure (Proc. Soc. Exp. Biol. Med. 1967; 125; 837-842 Brow et al) for in vitro assay for antiinflammatory agents based on stabilization of erythrocytes was used. All compounds were prepared for administration by dissolving in physiologic saline or suspending in 2% ethanol in saline and the pH adjusted to 7.4 The concentrations tested in one series are given in Table 8. Aspirin (ASA) and phenylbutazone were used as positive controls for comparison of activity. Tests using this procedure were successfully and repeatedly using either 40% or 20% RBC suspensions.

[4] = deaths and adverse effects observed in the rat paw edema test; assay type: in vivo
Protocol: as §1
The eighth rat died within 24 hours of injection.

[5] = test system: Trichophyton mentagrophytes; test: MIC, two-fold (broth) serial dilution, T. mentagrophytes; assay type: cell-based; settings: Trichophyton mentagrophytes, read-out: MIC
Protocol: (§6) Both qualitative and quantitative screens were performed. Qualitative screening was accomplished using the agar well diffusion assay technque while quantitative screening was accomplished by the two-fold (broth) serial dilution method to determine the minimum inhibitory concentration (MIC). Innoculation was accomplished with one loop-full of a 1:10 dilution of the 24-hour-old broth culture, (fungal cultures and M.smegmatis more often required 48 to 72 hours of incubation) of the test organisms in sterile water. Streptomycin sulfate was used as a positive control for antibacterial activity while amphitericin B was used as an antifungal positive control. Organisms utilized in the screens included gram-positive, gram-negative, and acid-fast bacteria as well as different types of fungi. […] An intermediate type activity is seen where R is hydrogen. However, where R is lengthened up to C15 a decrease in activity was noted. Total saturation of the two double bonds in the compounds having a methyl side chain lead, in most cases, to an increase in both antifungal and antibacterial activity.

Staphylococcus aureus = test: MIC, two-fold (broth) serial dilution, S. aureus; assay type: cell-based; settings: Staphylococcus aureus, read-out: MIC
Protocol: as §6

Mycobacterium smegmatis = test: MIC, two-fold (broth) serial dilution, M. smegmatis; assay type: cell-based; settings: Mycolicibacterium smegmatis, read-out: MIC
Protocol: as §6

Saccharomyces cerevisiae = test: MIC, two-fold (broth) serial dilution, S. cerevisiae; assay type: cell-based; settings: Saccharomyces cerevisiae, read-out: MIC
Protocol: as §6

Bacillus subtilis = test: MIC, two-fold (broth) serial dilution, B. subtilis; assay type: cell-based; settings: Bacillus subtilis, read-out: MIC
Protocol: as §6

[6] = Table 4, 60 mg/kg i.p., fasted rats
[7] = Table 4, 120 mg/kg i.p., fasted rats
[8] = Table 6, 60 mg/kg oral, non-fasted rats
[9] = Table 6, 120 mg/kg oral, non-fasted rats
[10] = Table 7, 120 mg/kg oral, fasted rats, doses approximate
[11] = Table 8, 1 × 10^-4 M, read-out: inhibition of heat-induced erythrocyte hemolysis

Compound: CCCCC1C(=O)N(c2ccccc2)N(c2ccccc2)C1=O [Phenylbutazone, reference compound]
- inhibition at 60 mg/kg ([1]; Rattus norvegicus, ip, Table 5, 60 mg/kg i.p., * P = 0.01): 52%
- inhibition at 120 mg/kg ([1]; Rattus norvegicus, ip, Table 5, 120 mg/kg i.p., * P = 0.01, read-out: inhibition of carrageenan-induced rat paw edema): 76%
- percent increase in paw volume ([1]; Table 1, 120 mg/kg i.p.): 10.316%
- percent of control ([1]; Table 1, 120 mg/kg i.p.): 22.973%
- mean difference in volume (MDV) ([1]; Table 1, 120 mg/kg i.p., paw volume measured in ml): 0.106
- group mean difference score ([1]; Table 3, 120 mg/kg): 0.016
- difference of mean scores versus vehicle control (Duncan's test) ([1]; Table 3, 120 mg/kg, ** p 0.01): 0.356
- difference of mean scores (Duncan's test) ([1]; Table 3, PBZ 120 mg/kg versus CBC 240 mg/kg): 0.102
- difference of mean scores (Duncan's test) ([1]; Table 3, PBZ 120 mg/kg versus CBC 480 mg/kg, * p 0.05): 0.149
- mean difference in volume (MDV) [1, 6]: 0.090
- percent increase in paw volume [1, 6]: 6.742%
- percent of control [1, 6]: 47.059%
- mean difference in volume (MDV) [1, 7]: 0.046
- percent increase in paw volume [1, 7]: 3.254%
- percent of control [1, 7]: 24.183%
- inhibition at 120 mg/kg ([2]; Rattus norvegicus, po, Table 5, 120 mg/kg oral, fasted rats, N.S., read-out: inhibition of carrageenan-induced rat paw edema): 36%
- inhibition at 60 mg/kg ([2]; Rattus norvegicus, po, read-out: inhibition of carrageenan-induced rat paw edema, Table 5, 60 mg/kg oral, nonfasted rats, * P = 0.01): 37%
- inhibition at 120 mg/kg ([2]; Rattus norvegicus, po, read-out: inhibition of carrageenan-induced rat paw edema, Table 5, 120 mg/kg oral, nonfasted rats): 22%
- mean difference in volume (MDV) [2, 8]: 0.489
- percent increase in paw volume [2, 8]: 50.257%
- percent of control [2, 8]: 78.200%
- mean difference in volume (MDV) [2, 9]: 0.392
- percent increase in paw volume [2, 9]: 36.098%
- percent of control [2, 9]: 62.667%
- mean difference in volume (MDV) [2, 10]: 0.403
- percent increase in paw volume [2, 10]: 31.051%
- percent of control [2, 10]: 64.400%
- antiinflammatory activity compared with PBZ in words ([2]; oral): slightly more effective than CBC at 120 mg/kg in the nonfasted rats
- inhibition at 100 µM [3, 11]: 16%
- inhibition at 20 µM ([3]; Table 8, 2 × 10^-5 M, read-out: inhibition of heat-induced erythrocyte hemolysis): 10%
- inhibition at 250 µM ([3]; Table 9 Test 1 (20% RBC), read-out: percent inhibition of heat-induced erythrocyte hemolysis): 54%
- inhibition at 25 µM ([3]; Table 9 Test 1 (20% RBC), 2.5 × 10^-5 M, read-out: percent inhibition of heat-induced erythrocyte hemolysis): 31%
- inhibition at 250 µM ([3]; Table 9 Test 2 (40% RBC), read-out: percent inhibition of heat-induced erythrocyte hemolysis): 70%
- inhibition at 20 µM ([3]; Table 9 Test 3 (20% RBC), 2.0 × 10^-5 M, read-out: percent inhibition of heat-induced erythrocyte hemolysis): 10%
- inhibition at 250 µM ([3]; Table 9 Test 3 (20% RBC), read-out: percent inhibition of heat-induced erythrocyte hemolysis): 49%
- inhibition at 100 µM ([3]; read-out: percent inhibition of heat-induced erythrocyte hemolysis, Table 9 Test 3 (20% RBC), 1.0 × 10^-4 M): 16%
- inhibition at 20 µM ([3]; 2×10^-5 M, read-out: inhibition of heat-induced red cell hemolysis): 10%
- inhibition at 100 µM ([3]; 10^-4 M, read-out: inhibition of heat-induced red cell hemolysis): 16%
- deaths ([4]; 240 mg/kg i.p. plus ethyl urethane i.p., listed as PBZ): rapid deaths; also recorded: Seven of the eight animals receiving 240 mg/kg of PBZ died before the test could be completed

Compound: CC(C)=CCCC1(C)C=Cc2c(O)cc(C)cc2O1 (centres unmarked) [CBC (II), 2 methyl-2(4'-methyl-pent-3'-enyl)-5-hydroxy-7-metylchromene]
- MIC ([5]; 48 h): 6.25 µg/mL (≈ 24.2 µM)
- MIC ([5]; 72 h): 6.25 µg/mL (≈ 24.2 µM)
- mean difference in volume (MDV) [1, 6]: 0.090
- percent increase in paw volume [1, 6]: 6.742%
- percent of control [1, 6]: 47.059%
- mean difference in volume (MDV) [1, 7]: 0.070
- percent increase in paw volume [1, 7]: 4.956%
- percent of control [1, 7]: 36.601%
- antiinflammatory activity compared with PBZ in words ([1]; i.p.): slightly less activity than PBZ at the 120 mg/kg dose; also recorded: as active at PBZ at 60 mg/kg
- antiinflammatory effect in words ([1]; i.p.): active at both 60 mg/kg and 120 mg/kg
- inhibition at 100 µM [3, 11]: 86%
- MIC (Staphylococcus aureus; 24 h): 3.12 µg/mL (≈ 12.1 µM)
- MIC (Staphylococcus aureus; 48 h): 3.12 µg/mL (≈ 12.1 µM)
- MIC (Mycobacterium smegmatis; 24 h): 3.12 µg/mL (≈ 12.1 µM)
- MIC (Mycobacterium smegmatis; 48 h): 6.25 µg/mL (≈ 24.2 µM)
- toxic or adverse effects ([4]; 60 and 120 mg/kg i.p.): No toxic or adverse effects were observed
- MIC (Saccharomyces cerevisiae; 48 h): 6.25 µg/mL (≈ 24.2 µM)
- MIC (Saccharomyces cerevisiae; 72 h): 12.5 µg/mL (≈ 48.4 µM)
- MIC (Bacillus subtilis; 24 h): 3.12 µg/mL (≈ 12.1 µM)
- MIC (Bacillus subtilis; 48 h): 3.12 µg/mL (≈ 12.1 µM)

Source: US4837228A, “Antiinflammatory and antimicrobial compounds and compositions” (The University of Mississippi, priority 1982, dated 1989)
